Data taken from PubChem BioAssay (NCI).
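Method: 48-hour compound exposure of cells in 96-well plates, five concentrations, linear interpolation of endpoints. Definition used: TGI = concentration required for complete inhibition of growth.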

Assays:
Test in all cases: NCI tumour cell line growth inhibition, 48 h
[1] = system: 786-0 renal
[2] = system: A498 renal
[3] = system: A549 NSCLC
[4] = system: ACHN renal
[5] = system: BT-549 breast
[6] = system: CAKI-1 renal
[7] = system: CCRF-CEM leukemia
[8] = system: COLO 205 colon
[9] = system: DU-145 prostate
[10] = system: EKVX NSCLC
[11] = system: HCC-2998 colon
[12] = system: HCT-116 colon
[13] = system: HCT-15 colon
[14] = system: HL-60(TB) leukemia
[15] = system: HOP-62 NSCLC
[16] = system: HT29 colon
[17] = system: IGROV1 ovarian
[18] = system: K-562 leukemia
[19] = system: KM12 colon
[20] = system: LOX IMVI melanoma
[21] = system: MALME-3M melanoma
[22] = system: MCF7 breast
[23] = system: MDA-MB-231 breast
[24] = system: MDA-MB-435
[25] = system: MDA-N
[26] = system: MOLT-4 leukemia
[27] = system: NCI-H226 lung
[28] = system: NCI-H23 lung
[29] = system: NCI-H460 lung
[30] = system: NCI/ADR-RES ovarian
[31] = system: OVCAR-4 ovarian
[32] = system: OVCAR-5 ovarian
[33] = system: OVCAR-8 ovarian
[34] = system: RPMI-8226 leukemia
[35] = system: RXF 393 renal
[36] = system: SF-268 CNS
[37] = system: SF-295 CNS
[38] = system: SF-539 CNS
[39] = system: SK-MEL-28 melanoma
[40] = system: SK-MEL-5 melanoma
[41] = system: SK-OV-3 ovarian
[42] = system: SN12C renal
[43] = system: SNB-19 CNS
[44] = system: SNB-75 CNS
[45] = system: SW-620 colon
[46] = system: T-47D breast
[47] = system: TK-10 renal
[48] = system: U251 CNS
[49] = system: UACC-257 melanoma
[50] = system: UACC-62 melanoma
[51] = system: UO-31 renal

## CC1=C(c2ccc(C)cc2)NC(=S)C(C)C(c2ccc(C)cc2)=N1 (stereo unspecified)
[1]
  TGI: > 100 µM
[2]
  TGI: > 100 µM
[3]
  TGI: > 100 µM
[4]
  TGI: > 100 µM
[5]
  TGI: > 100 µM
[6]
  TGI: > 100 µM
[7]
  TGI: > 100 µM
[8]
  TGI: > 100 µM
[9]
  TGI: > 100 µM
[10]
  TGI: > 100 µM
[11]
  TGI: > 100 µM
[12]
  TGI: > 100 µM
[13]
  TGI: > 100 µM
[14]
  TGI: > 100 µM
[15]
  TGI: > 100 µM
[16]
  TGI: > 100 µM
[17]
  TGI: > 100 µM
[18]
  TGI: > 100 µM
[19]
  TGI: > 100 µM
[20]
  TGI: > 100 µM
[21]
  TGI: > 100 µM
[22]
  TGI: > 100 µM
[23]
  TGI: > 100 µM
[24]
  TGI: > 100 µM
[25]
  TGI: > 100 µM
[26]
  TGI: > 100 µM
[27]
  TGI: > 100 µM
[28]
  TGI: > 100 µM
[29]
  TGI: > 100 µM
[30]
  TGI: > 100 µM
[31]
  TGI: > 100 µM
[32]
  TGI: > 100 µM
[33]
  TGI: > 100 µM
[34]
  TGI: > 100 µM
[35]
  TGI: 70.9 µM
[36]
  TGI: > 100 µM
[37]
  TGI: > 100 µM
[38]
  TGI: > 100 µM
[39]
  TGI: > 100 µM
[40]
  TGI: > 100 µM
[41]
  TGI: > 100 µM
[42]
  TGI: > 100 µM
[43]
  TGI: > 100 µM
[44]
  TGI: > 100 µM
[45]
  TGI: > 100 µM
[46]
  TGI: > 100 µM
[47]
  TGI: > 100 µM
[48]
  TGI: > 100 µM
[49]
  TGI: > 100 µM
[50]
  TGI: > 100 µM
[51]
  TGI: > 100 µM
